These results are taken from EPA's ToxValDB 9.5.

SMILES strings stand for the structures. Where “and” joins values, the source holds several entries; their conditions need not be identical. Equal entries are not always repeated.

Data set [1] relates to Rattus norvegicus. Conditions: for LC50 / LD50: acute; for NOAEL: reproduction developmental.
Data set [2] has as its system Rattus norvegicus. As to the kind of experiment: LD40; higher = less toxic. The following applies: acute; oral; gavage; Wistar.
Data set [3] relates to Mus musculus. Conditions: inhalation.
The subject of data set [4] is Monkey. Conditions: subchronic; duration: 3 months; inhalation; Cynomolgus.
A further data set has as its system Cavia sp. The following applies: acute; inhalation; FTD Hartley.
The subject of data set [5] is Rattus norvegicus. The following applies: chronic, duration: 2 years, oral, diet.
The test system of data set [6] is Rattus norvegicus.
Data set [7] relates to Monkey. Conditions: subchronic; duration: 55 days; oral; diet; M; Squirrel Monkey; neurological.
Data set [8] deals with Rattus norvegicus. The source holds these as a separate data set.
In another data set the test system is Tytonidae. Conditions: oral.
Data set [9] relates to Rattus norvegicus. Conditions: repeat dose other; oral.
The next data set has as its system Canidae. The following applies: chronic, duration: 1 years, oral, diet, Dog Other, Decreased weight gain in males and neurologic findings in both sexes.
The next data set deals with Oryctolagus sp. Conditions: reproduction developmental; duration: 22 days; oral; gavage; M/F; New Zealand; neurological.
A further data set relates to Perdix perdix. Conditions: oral.
For data set [10], the system named is Mus musculus. Conditions: subchronic; duration: 13 weeks; inhalation; intermittent; Nasal mucosa: Inflammation.
In the next data set the test system is Sus scrofa. Conditions: chronic; duration: 105 days; oral; diet; Not specified; Gastrointestinal system: Disturbance.
The next data set has as its system Homo sapiens. The following applies: clinical; duration: 30 minutes; inhalation; M/F; respiratory.
Data set [11] concerns Gallus sp. Conditions: subchronic; duration: 3 months; oral; capsule; Nervous system: Ataxia + Nervous system: Delayed neurotoxicity + Whole body: Decreased weight.
Data set [12] relates to Gallus sp. The following applies: subchronic; duration: 90 days; oral; F; ataxia, delayed neurotoxicity and weight loss.
[13] abbreviates: chronic, duration: 2 years, oral, diet, M/F, liver lesions.
The mark [14] stands for this setting: chronic, duration: 2 years, oral, diet, F, increased incidence of marked progressive glomerulonephrosis and blood vessel aneurysms in males + Reduced body weight gain in males and ….
[15] abbreviates: subchronic, inhalation, M, nasal lesions of the olfactory mucosa.

As usually defined, the LD50 is the dose at which mortality reaches 50%. `CC(C)(C)C(=O)CCc1ccc(Cl)cc1` [1-(4-Chlorophenyl)-4,4-dimethyl-pentan-3-one]: the LC50 in the data set with Rattus norvegicus [1] (Inhalation, Wistar) is over 2940 mg/m3. The LD50 in the data set on Rattus norvegicus [1] (dermal, occlusive, Wistar) is over 5000 mg/kg; in the data set on Rattus norvegicus [1] (oral, gavage, Wistar), 4750 mg/kg and > 5000 mg/kg and 4820 mg/kg. In the data set on Rattus norvegicus [2], this compound came in with an LD40 of 3140 mg/kg.

What is called LOAEL is the lowest tested level that showed an adverse finding. Take `[C-]#[O+]` [Carbon monoxide]: the LC50 was 2070 mg/m3 and ≥ 1830 mg/m3 and ≤ 2240 mg/m3 with Mus musculus [3] (acute, NIH/Nmri Swiss albino); 2070 mg/m3 and ≥ 1830 mg/m3 and ≤ 2240 mg/m3 in the data set with Cavia sp.. The LOAEL in the data set on Mus musculus [3] (reproduction developmental, duration: 7 days, CD1, generation: F1) stood at 143 mg/m3; in the data set on Monkey [4], 115 mg/m3.

For orientation: NOAEL means the highest tested level that showed no adverse finding. Take `ClC1=C(Cl)[C@]2(Cl)[C@@H]3[C@@H]4C[C@@H]([C@H]5O[C@@H]45)[C@@H]3[C@@]1(Cl)C2(Cl)Cl` [Dieldrin]: the NOAEL was 0.005 mg/kg-day with Rattus norvegicus [5] (Liver: Lesions); 0.005 mg/kg-day in the data set with Rattus norvegicus [6] (setting [13]); 0.01 mg/kg-day in the data set with Monkey [7]; 0.005 mg/kg-day in the data set on Rattus norvegicus [8] (chronic, duration: 2 years, oral, diet, M/F, Carworth Farms E, hepatic); 0.077 mg/kg-day in the data set with Tytonidae; 0.02 mg/kg-day in the data set with Rattus norvegicus [9]. The LOAEL in the data set on Rattus norvegicus [6] (setting [13]) was found to be 0.05 mg/kg-day; with Rattus norvegicus [9], 0.2 mg/kg-day.

For the compound `O=S1OCC2C(CO1)C1(Cl)C(Cl)=C(Cl)C2(Cl)C1(Cl)Cl` (centres undefined) [Endosulfan], the NOAEL with Rattus norvegicus [5] (Blood vessel: Aneurysms + Kidney: Glomerulonephrosis + Whole body: Decreased weight gain) turned out to be 1.17 mg/kg-day; with Canidae (F), 0.57 mg/kg-day; in the data set with Rattus norvegicus [6] (setting [14]), 0.7 mg/kg-day; in the data set with Rattus norvegicus [6] (chronic, duration: 2 years, oral, diet, M, reduced body weight gain (males) and females increased incidence of marked progressive glomerulonephrosis and blood vessel aneurysms (males)), 0.6 mg/kg-day; with Oryctolagus sp., 0.7 mg/kg-day; with Rattus norvegicus [8] (chronic, duration: 22 weeks, oral, diet, M, Wistar, immunological), 0.45 mg/kg-day. Besides, the NOAEL turned out to be 10 mg/kg-day with Perdix perdix and 0.15 mg/kg-day in the data set with Rattus norvegicus [9]. The LOAEL came out at 1.9 mg/kg-day in the data set on Canidae (F); 2.1 mg/kg-day in the data set on Canidae (M); 3.8 mg/kg-day with Rattus norvegicus [6] (setting [14]); 2.9 mg/kg-day in the data set with Rattus norvegicus [6] (chronic, duration: 2 years, oral, diet, M, increased incidence of marked progressive glomerulonephrosis and blood vessel aneurysms in males + Reduced body weight gain in males and …).

As for `S` [Hydrogen sulfide], the NOAEL with Mus musculus [10] came to 42 mg/m3; in the data set on Sus scrofa, 3.1 mg/kg-day; in the data set on Rattus norvegicus [6] (setting [15]), 13.9 mg/m3; in the data set on Rattus norvegicus [8] (subchronic, duration: 10 weeks, inhalation, M, Sprague-Dawley, respiratory), 13.9 mg/m3; with Rattus norvegicus [1] (duration: 18 days, inhalation, F, Sprague-Dawley) it was 112 mg/m3; in the data set on Rattus norvegicus [1] (inhalation, Sprague-Dawley, generation: F0), 112 mg/m3. Besides, the NOAEL in the data set on Rattus norvegicus [1] (inhalation, Sprague-Dawley, generation: F1) came to 112 mg/m3. In addition, the LOAEL worked out at 41.7 mg/m3 in the data set with Rattus norvegicus [6] (setting [15]) and 2.79 mg/m3 with Homo sapiens. Further, in the data set with Rattus norvegicus [1] (inhalation, Sprague-Dawley), the LC50 is 619 mg/m3 and ≥ 580 mg/m3 and ≤ 659 mg/m3.

Take `CCCCSP(=O)(SCCCC)SCCCC` [Tribufos]: the NOEL in the data set with Gallus sp. [11] and in the data set on Gallus sp. [12] was 0.1 mg/kg-day each time. The compound further yielded an LOAEL in the data set on Gallus sp. [12] of 0.5 mg/kg-day. In addition, the NOAEL is 0.28 mg/kg-day in the data set with Rattus norvegicus [8] (reproduction developmental, duration: 364 days, oral, diet, M, Sprague-Dawley, neurological) and 2.43 mg/m3 in the data set with Rattus norvegicus [8] (subchronic, duration: 13 weeks, inhalation, head only, M/F, Wistar, neurological). In addition, the LC50 in the data set on Rattus norvegicus [1] (Inhalation, Sprague-Dawley) is ≥ 2460 mg/m3 and ≤ 4650 mg/m3.
